According to patent publication US20150374705A1, “Substances for treatment or relief of pain” (Shanghai Institues for Biological Sciences, priority 2012, published 2015):
Entries after “also recorded” stand apart in the source; their conditions may differ. Each block holds one compound with its values, some of them ahead of it.

Legend:
[1] = system: SNI model rats (neuropathic pain); test: Spared nerve injury (SNI) model, neuropathic pain, mechanical pain threshold; type: in vivo; conditions: rat; for Suppression of neuropathic pain (nociceptive threshold): 3 mg/kg injection, 0.5-24 hours after administration; for Suppression of neuropathic pain (nociceptive threshold) / Tolerance on continuous administration: 14 days after SNI; for Tolerance on continuous administration: continuous injection for 6 days, measured 1-3 hours after administration
How it was run: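 Male SD rats (200-250 g, n=6) with spared nerve injury (tibial and common peroneal ligated and cut, sural spared) were tested blind. Von Frey filaments (1-50 g) on the plantar paw gave the 50% withdrawal threshold. Compounds in 70% PEG400 were injected at 2-3 mg/kg; MRK016-M3 in 90% PEG400 was given orally at 0.3-10 mg/kg; unpaired t-test.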

[2] = molecular target: T1, Human recombinant α5-GABAA receptor (Homo sapiens, UniProt P18507+P31644); conditions: Jones et al. 2006; cited from earlier work
T1 construct: expressed in transfected cells; host or cells: 293 cell line

[3] = system: brain microvessel endothelial cells co-cultivated with astrocyte; test: In vitro blood-brain barrier model (BBBM); type: in vitro ADME
Source text: Through in vitro blood-brain barrier model (BBBM), whether the substance to be measured could effectively pass blood brain barrier was detected. In this experiment, brain microvessl endothelial cells were co-cultivated with astrocyte, and then whether the substance to be measured could effectively pass cellular membrane was detected. For detailed method, please refer to related literature (Culot M et al., An in vitro blood-brain barrier model for high throughput (HTS) toxicological screening. Toxicol In Vitro. 2008 April; 22(3):799-811).

[4] = molecular target: T2, Human recombinant GABAA receptor containing α5 subunit (α5, β3, γ2) (Homo sapiens, UniProt P18507+P31644); test: Competitive radioligand binding ([3H]Ro-0151788) on membranes of 293 cells, Ki; conditions: human recombinant GABAA subtype containing α5; read-out: Affinity, nM (α5)
T2 construct: expressed in transfected cells; host or cells: 293 cell line
Description: (§1) Different subunits of GABAA receptor were expressed in cell lines, including human kidney epithelial cell line, 293 cell line or L(tk−) cell line. The cells were cultured in medium, and such cells were used as the cellular model for screening drugs to suppress pain. a subunit, β subunit and γ subunit are indispensable for one complete functional GABAA receptor.
(§2) In this example, the inventors established the following cellular models:
(a) simultaneously expressing α5 subunit (for the protein sequence, see GenBank accession number NM_001165037.1), β3 subunit (for the protein sequence, see GenBank accession number NM_021912.4) and γ2 subunit (for the protein sequence, see GenBank accession number NM_198904.2) in 293 cell line, forming the GABAA receptor containing α5 subunit;
(§3) Each of the (a) to (d) above could form a GABAA receptor with complete function.
(§4) Then, the cellular membrane was extracted and the protein concentration was measured. The competitive binding of the substances to be measured and radiolabelled compounds (e.g. 1 nM [^3H]Ro-0151788) were detected respectively to calculate the Ki value of the substances to be measured, see the method described in literature (Ballard T M et al., RO4938581, a novel cognitive enhancer acting at GABAA alpha5 subunit-containing receptors. Psychopharmacology (Berl). 2009 January; 202(1-3): 207-23). If the binding inhibition constant Ki (nM) of α5-GABAA receptor with the candidate substances in experimental group is less than the Ki of the receptor containing other a subunit (α1 subunit, α2 subunit or α3 subunit), then the candidate substance is a potential drugs for preventing, relieving or treating pain. Many methods can be used by those skilled in the art to evaluate the binding capacity of the ligand of α5-GABAA receptor to the α5-GABAA receptor, including but not limiting to the method above.

[5] = molecular target: T3, Human recombinant GABAA receptor containing α3 subunit (α3, β3, γ2) (Homo sapiens, UniProt P18507+P34903); test: as above; conditions: human recombinant GABAA subtype containing α3; read-out: Affinity, nM (α3)
T3 construct: expressed in transfected cells; host or cells: 293 cell line
Description: as §1, §2
(d) simultaneously expressing α3 subunit (for the protein sequence, see GenBank accession number NM_000808.3), β3 subunit and γ2 subunit in 293 cell line, forming the GABAA receptor containing α3 subunit;
as §3, §4

[6] = system: CFA induced inflammatory pain model rats (heat pain); test: CFA induced inflammatory pain model, heat pain threshold; type: in vivo; conditions: rat
[7] = molecular target: T4, Human recombinant GABAA receptor containing α2 subunit (α2, β3, γ2) (Homo sapiens, UniProt P18507+P47869); test: Competitive radioligand binding ([3H]Ro-0151788) on membranes of 293 cells, Ki; conditions: human recombinant GABAA subtype containing α2; read-out: Affinity, nM (α2)
T4 construct: expressed in transfected cells; host or cells: 293 cell line

Ki [4]: 1.1 nM | Ki [5]: 0.69 nM
Structure (SMILES): Cn1ncnc1COc1nn2c(-c3cc(CO)on3)nncc2c1C(C)(C)C [MRK016-M3, (3-(3-tert-butyl-2-((2-methyl-2H-1,2,4-triazol-3-yl)methoxy)pyrazolo [1,5-d][1,2,4]triazin-7-yl)isoxazol-5-yl)methanol]
Suppression of neuropathic pain, topical administration ([1]; 100 microliter (1 mg/ml) injected to the feet, 10 days after SNI): still efficiently suppressed | Suppression of neuropathic pain (pain threshold) in rats injected with control siRNA ([1]; oral 3 mg/kg, control siRNA intrathecal, 3 mg/kg): significantly suppressed neuropathic pain; also recorded: significantly increased the pain threshold | Suppression of neuropathic pain (pain threshold) in rats injected with siRNA specific to α5 subunit ([1]; oral 3 mg/kg, α5-specific siRNA intrathecal, 3 mg/kg): no obvious effect; also recorded: did not significantly increase the nociceptive threshold | Suppression of neuropathic pain (mechanical pain), dose-dependent experiment ([1]; oral 10 mg/kg, 3 mg/kg and 1 mg/kg, 10 to 20 days after SNI, 1 hour after administration): significantly suppressed | Inverse agonist effect of α5-GABAA receptor [2]: significant inverse agonist effect | Passing blood brain barrier [3]: cannot significantly pass blood brain barrier | Suppression of heat pain ([6]; oral administration, 3 days after CFA model, 1 hour after administration): significantly suppress inflammatory pain; also recorded: significantly suppressed pain

Structure (SMILES): Cc1cc(-c2nnc3c4ccccc4c(OCC4=CC(C)C=N4)nn23)no1 (stereo not drawn) [α5IA]
Suppression of neuropathic pain (nociceptive threshold) ([1]; 3 mg/kg): significantly suppressed neuropathic pain | Suppression of neuropathic pain (nociceptive threshold) ([1]; listed as A5I, 3 mg/kg): efficiently suppressed neuropathic pain | Tolerance on continuous administration [1]: did not generate tolerance response | Tolerance on continuous administration ([1]; listed as A5I): did not produce tolerance | Ki [7]: 0.58 nM | Ki [4]: 0.66 nM | Ki [5]: 0.61 nM | Suppression of heat pain ([6]; 3 mg/kg intraperitoneal, 3 days after CFA, 0.5-3.0 hours after administration, listed as A5I, 3 mg/kg): efficiently inhibit inflammatory pain; also recorded: efficiently treat heat pain
